Assay results: ChEMBL document CHEMBL3098127, “A highly predictive 3D-QSAR model for binding to the voltage-gated sodium channel: design of potent new ligands” (Bioorg Med Chem, 2014)

Experiments:
[1] = species on record: Rattus norvegicus; conditions: Cerebral cortex
[2] = Displacement of [3H]BTX-B from neuronal voltage-gated sodium channel in rat cerebral cortex synaptoneurosomes after 60 mins by scintillation counting; format: tissue-based

CCCCN(CCCC)CCCOC(=O)c1ccc(N)cc1
logIC50 [1]: 0.43

CCCCCCCCCC(O)(C(N)=O)c1ccccc1 (stereo not drawn)
logIC50 [1]: 0.81

CCC(O)(C(=O)NCCc1ccccc1)c1ccccc1 (stereo not drawn)
logIC50 [1]: 1.48

c1ccc(CCN2CCN(C(c3ccccc3)c3ccccc3)CC2)cc1
IC50 [2]: 257 nM

CCCCCC(O)(C(=O)NCCC(c1ccccc1)c1ccccc1)c1ccccc1 (stereo not drawn)
logIC50 [1]: 0.4

c1ccc(C(CCCNC(c2ccccc2)c2ccccc2)c2ccccc2)cc1
IC50 [2]: 1330 nM

c1ccc(C(CCCCNC(c2ccccc2)c2ccccc2)c2ccccc2)cc1
IC50 [2]: 562 nM

NCCCCCCNS(=O)(=O)c1cccc2ccccc12
logIC50 [1]: 1.34

CCCCCC(O)(C(=O)N1CCN(C(c2ccccc2)c2ccccc2)CC1)c1ccccc1 (stereo not drawn)
logIC50 [1]: 0.68

CCC(OCCCc1ccccc1)(C(=O)CCCCc1ccccc1)c1ccccc1 (stereo not drawn)
logIC50 [1]: 0.63

CCCCCC1(c2ccccc2)NC(=O)N(Cc2ccccc2)C1=O (stereo not drawn)
logIC50 [1]: 0.84

CCN(CC)CC(=O)Nc1c(C)cccc1C
logIC50 [1]: 1.68

CC(Cc1ccccc1)NCCC(c1ccccc1)c1ccccc1 (stereo not drawn)
logIC50 [1]: -0.52

CCCOc1cc(N)ccc1C(=O)OCCN(CC)CC
logIC50 [1]: 1.38

CCCCC1(c2ccccc2)NC(=O)N(C)C1=O (stereo not drawn)
logIC50 [1]: 2.45

CCOC(=O)C1=C(C)NC(C)=C(C(=O)OC)C1c1cccc(Cl)c1Cl (stereo not drawn)
logIC50 [1]: 1.57

CCCCCC1(c2ccccc2)NC(=O)N(S(C)(=O)=O)C1=O (stereo not drawn)
logIC50 [1]: 2.05

CCCCOc1ccc(OCCCN2CCOCC2)cc1
logIC50 [1]: 1

CC12C(=O)NC(=O)N1CCc1ccccc12 (stereo not drawn)
logIC50 [1]: 2.86

c1ccc(CCCNCCCc2ccccc2)cc1
IC50 [2]: 252 nM

CCCCCC1(c2ccccc2)NC(=O)NC1=O (stereo not drawn)
logIC50 [1]: 1.59

CCCCCCCC1(c2ccccc2)OC(=O)NC1=O (stereo not drawn)
logIC50 [1]: 1.48

Clc1ccc(C(c2ccc(Cl)cc2)[n+]2ccn(CC(OCc3ccc(Cl)cc3Cl)c3ccc(Cl)cc3Cl)c2)cc1 (stereo not drawn)
logIC50 [1]: 0.85

Cc1ccc2c(S(=O)(=O)NCCCCCCN)cccc2c1
logIC50 [1]: 1.08

COc1ccc(CCN(C)CCCC(C#N)(c2cc(OC)c(OC)c(OC)c2)C(C)C)cc1OC (stereo not drawn)
logIC50 [1]: 0.56

Cc1cccc(C)c1NC(=O)C1CCCCN1C (stereo not drawn)
logIC50 [1]: 2.28

Cc1cccc(C)c1NC(=O)C(C)N (stereo not drawn)
logIC50 [1]: 2.3

O=C1NC(=O)C2(CCc3ccccc32)N1 (stereo not drawn)
logIC50 [1]: 3.32

CCC(O)(C(=O)NCCCc1ccccc1)c1ccccc1 (stereo not drawn)
logIC50 [1]: 1.54

Fc1ccc(C(CCCNCCc2ccccc2)c2ccc(F)cc2)cc1
IC50 [2]: 1230 nM

CN(C)C(=O)C(CCN1CCC(O)(c2ccc(Cl)c(C(F)(F)F)c2)CC1)(c1ccccc1)c1ccccc1
logIC50 [1]: 0.55

CC1CCCCN1CCCOC(=O)c1ccccc1 (stereo not drawn)
logIC50 [1]: 1.11

CCN(CC)CCOC(=O)C1(C2CCCCC2)CCCCC1
logIC50 [1]: 0.45

c1ccc(C(CCCCCNC(c2ccccc2)c2ccccc2)c2ccccc2)cc1
IC50 [2]: 345 nM

CCCCCCCC(O)(C(N)=O)c1ccccc1 (stereo not drawn)
logIC50 [1]: 0.95

CCCCOc1cc(C(=O)NCCN(CC)CC)c2ccccc2n1
logIC50 [1]: 0.78

O=C1NC(=O)C2(CCCc3ccccc32)N1 (stereo not drawn)
logIC50 [1]: 2.93

CN(C)CCC(c1ccccc1)c1ccccn1 (stereo not drawn)
logIC50 [1]: 1.52

O=C1NC(=O)C2(CCCCCc3ccccc32)N1 (stereo not drawn)
logIC50 [1]: 2.4

CCCCCCCCCC1(c2ccccc2)NC(=O)NC1=O (stereo not drawn)
logIC50 [1]: 0.7

CCCCCCCCCC1(c2ccccc2)NC(=O)N(S(C)(=O)=O)C1=O (stereo not drawn)
logIC50 [1]: 1.1

O=C(CCCN1CCC(O)(c2ccc(Cl)cc2)CC1)c1ccc(F)cc1
logIC50 [1]: 0.08

O=C(NCCN1CCN(C(c2ccccc2)c2ccccc2)CC1)c1ccccc1
IC50 [2]: 283 nM

CCC1(c2ccccc2)NC(=O)N(S(=O)(=O)c2ccc(C)cc2)C1=O (stereo not drawn)
logIC50 [1]: 1.7

CCCCCC(O)(C(=O)NCCc1ccccc1)c1ccccc1 (stereo not drawn)
logIC50 [1]: 0.7

CCCCc1cc2ccccc2c(OCCN(C)C)n1
logIC50 [1]: 0.53

CCCCCCC1(c2ccccc2)NC(=O)NC1=O (stereo not drawn)
logIC50 [1]: 1.11

O=C1NC(=O)C2(CCCCc3ccccc32)N1 (stereo not drawn)
logIC50 [1]: 2.4

CCCCOc1cc(C(=O)OCCN(CC)CC)ccc1N
logIC50 [1]: 0.46

CCOC(=O)c1ccc(N)cc1
logIC50 [1]: 2.86

CC(C)CNCCOC(=O)c1ccc(N)cc1
logIC50 [1]: 1.74

COc1cc(C(=O)OCCCN2CCCN(CCCOC(=O)c3cc(OC)c(OC)c(OC)c3)CC2)cc(OC)c1OC
logIC50 [1]: -0.22

C[N+](C)(CC(=O)Nc1ccccc1)CC(=O)Nc1ccccc1
logIC50 [1]: 0.59

CCCC1(c2ccccc2)NC(=O)NC1=O (stereo not drawn)
logIC50 [1]: 2.21

CC(C)COCC(CN(Cc1ccccc1)c1ccccc1)N1CCCC1 (stereo not drawn)
logIC50 [1]: -0.08

Fc1ccc(C(CCCN2CCN(C(c3ccccc3)c3ccccc3)CC2)c2ccc(F)cc2)cc1
IC50 [2]: 119 nM

c1ccc(C(CCCCCCNC(c2ccccc2)c2ccccc2)c2ccccc2)cc1
IC50 [2]: 560 nM

c1ccc(C(CCNC(c2ccccc2)c2ccccc2)c2ccccc2)cc1
IC50 [2]: 760 nM

Fc1ccc(C(CCCNCCCc2ccccc2)c2ccc(F)cc2)cc1
IC50 [2]: 229 nM

CCC(O)(C(=O)NCCC(c1ccccc1)c1ccccc1)c1ccccc1 (stereo not drawn)
logIC50 [1]: 0.91

COC(=O)C1=C(C)NC(C)=C(C(=O)OCC(C)C)C1c1ccccc1[N+](=O)[O-] (stereo not drawn)
logIC50 [1]: 1.41

CCCCCC1(c2ccccc2)NC(=O)N(CN2CCN(C(c3ccccc3)c3ccccc3)CC2)C1=O (stereo not drawn)
logIC50 [1]: 0.11

CCCC1(c2ccccc2)OC(=O)NC1=O (stereo not drawn)
logIC50 [1]: 2.65

Cc1ccc(C(=O)CCCN2CCN(C(c3ccccc3)c3ccccc3)CC2)cc1C
IC50 [2]: 156 nM

CCOc1ccc(/N=C(\C)Nc2ccc(OCC)cc2)cc1
logIC50 [1]: 0.23

OC(CCCN1CCCCC1)(c1ccccc1)c1ccccc1
logIC50 [1]: 0.53

CCCCCCCC1(c2ccccc2)NC(=O)N(S(C)(=O)=O)C1=O (stereo not drawn)
logIC50 [1]: 1.11

CCCC1(c2ccccc2)NC(=O)N(S(C)(=O)=O)C1=O (stereo not drawn)
logIC50 [1]: 2.7

CCCCCCCC1(c2ccccc2)NC(=O)NC1=O (stereo not drawn)
logIC50 [1]: 0.7

O=C1NC(=O)C(c2ccccc2)(c2ccccc2)N1
logIC50 [1]: 1.6

COc1cc2nc(N3CCN(C(=O)c4ccco4)CC3)nc(N)c2cc1OC
logIC50 [1]: 1.33

CCCCCC(O)(C(=O)NCCCc1ccccc1)c1ccccc1 (stereo not drawn)
logIC50 [1]: 0.72

CCN(CC)CCOC(=O)c1ccc(N)cc1
logIC50 [1]: 2.04

CCCNC(C)C(=O)Nc1ccccc1C (stereo not drawn)
logIC50 [1]: 1.73

CC(O)(C(=O)N1CCN(C(c2ccccc2)c2ccccc2)CC1)c1ccccc1 (stereo not drawn)
logIC50 [1]: 0.8

c1ccc(C(CNC(c2ccccc2)c2ccccc2)c2ccccc2)cc1
IC50 [2]: 3160 nM

CCCCCC1(c2ccccc2)OC(=O)NC1=O (stereo not drawn)
logIC50 [1]: 2.5

CCN1C(=O)NC(=O)C1(C)c1ccccc1 (stereo not drawn)
logIC50 [1]: 2.4

COC(=O)[C@H]1[C@@H](OC(=O)c2ccccc2)C[C@@H]2CC[C@H]1N2C
logIC50 [1]: 1.69

OCCN1CCN(CCCN2c3ccccc3Sc3ccc(C(F)(F)F)cc32)CC1
logIC50 [1]: 0.57

c1ccc(CCCNCCc2ccccc2)cc1
IC50 [2]: 340 nM

CN(C)C(=O)C(CCN1CCC(O)(c2ccc(Cl)cc2)CC1)(c1ccccc1)c1ccccc1
logIC50 [1]: -0.56

CC(C)(C)c1ccc(C(=O)CCCN2CCN(C(c3ccccc3)c3ccccc3)CC2)cc1
IC50 [2]: 128 nM

CCOC(=O)C1=C(C)NC(C)=C(C(=O)OC)C1c1cccc([N+](=O)[O-])c1 (stereo not drawn)
logIC50 [1]: 1.56

CCCNC(C)(C)COC(=O)c1ccccc1
logIC50 [1]: 0.88

CCCCCCCCCC1(c2ccccc2)NC(=O)N(Cc2ccccc2)C1=O (stereo not drawn)
logIC50 [1]: 0.71

c1ccc(CCCN2CCN(C(c3ccccc3)c3ccccc3)CC2)cc1
IC50 [2]: 192 nM

CCC1(c2ccccc2)NC(=O)N(CN2CCN(C(c3ccccc3)c3ccccc3)CC2)C1=O (stereo not drawn)
logIC50 [1]: 0.52
